Where “and” joins values, the source holds several entries; their conditions need not be identical. Identical values can stand only once. Toxic doses and inconclusive results are not listed.
System: P388 leukemia ip, CD2F1 mice, survival T/C
Assay: NCI In Vivo Anticancer Drug Screen. Data for tumor model P388 Leukemia (intraperitoneal) in CD2F1 (CDF1) mice
Settings: endpoint: median survival time, higher = longer survival
Procedure, shortened: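 Mice carrying the transplanted tumor received test compound or vehicle. Survival was recorded in each group, and the value is the treated-group measurement divided by that of the vehicle-treated control group.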

[1] = dose: 60.0 mg/kg/injection, schedule: Q01DX005 (ip), vehicle: saline with Tween-80
[2] = dose: 120.0 mg/kg/injection, schedule: Q01DX005 (ip), vehicle: saline with Tween-80
[3] = dose: 240.0 mg/kg/injection, schedule: Q01DX005 (ip), vehicle: saline with Tween-80
[4] = dose: 50.0 mg/kg/injection, schedule: Q01DX005 (ip), vehicle: Klucel (hydroxypropylcellulose) (HPC)
[5] = dose: 100.0 mg/kg/injection, schedule: Q01DX005 (ip), vehicle: Klucel (hydroxypropylcellulose) (HPC)
[6] = dose: 200.0 mg/kg/injection, schedule: Q01DX005 (ip), vehicle: Klucel (hydroxypropylcellulose) (HPC)
[7] = dose: 50.0 mg/kg/injection, schedule: Q01DX009 (ip), vehicle: saline with Tween-80
[8] = dose: 100.0 mg/kg/injection, schedule: Q01DX009 (ip), vehicle: saline with Tween-80
[9] = dose: 50.0 mg/kg/injection, schedule: Q01DX005 (ip), vehicle: saline with Tween-80
[10] = dose: 100.0 mg/kg/injection, schedule: Q01DX005 (ip), vehicle: saline with Tween-80
[11] = dose: 200.0 mg/kg/injection, schedule: Q01DX005 (ip), vehicle: saline with Tween-80
[12] = dose: 25.0 mg/kg/injection, schedule: Q01DX005 (ip), vehicle: Klucel (hydroxypropylcellulose) (HPC)
[13] = dose: 6.25 mg/kg/injection, schedule: Q01DX009 (ip), vehicle: saline with Tween-80
[14] = dose: 12.5 mg/kg/injection, schedule: Q01DX009 (ip), vehicle: saline with Tween-80
[15] = dose: 100.0 mg/kg/injection, schedule: Q04DX002 (ip), vehicle: saline with Tween-80
[16] = dose: 200.0 mg/kg/injection, schedule: Q04DX002 (ip), vehicle: saline with Tween-80
[17] = dose: 25.0 mg/kg/injection, schedule: Q01DX009 (ip), vehicle: saline with Tween-80

Structure (SMILES): CNCCc1c(C2C3C(C=C(C)CC3(C)C)c3c(CCNC)c4ccccc4n32)[nH]c2ccccc12 (stereo not drawn)
- T/C (dose: 4.0 mg/kg/injection, schedule: Q01DX009 (ip), vehicle: saline): 107 % of control
- T/C (dose: 8.0 mg/kg/injection, schedule: Q01DX009 (ip), vehicle: saline): 110 % of control
- T/C (dose: 16.0 mg/kg/injection, schedule: Q01DX009 (ip), vehicle: saline): 115 % of control
- T/C (dose: 32.0 mg/kg/injection, schedule: Q01DX009 (ip), vehicle: saline): 114 % of control

Structure (SMILES): CCOC(=O)CCC[n+]1cccc(C#N)c1
- T/C (dose: 31.25 mg/kg/injection, schedule: Q01DX005 (ip), vehicle: Klucel (hydroxypropylcellulose) (HPC)): 101 % of control
- T/C (dose: 62.5 mg/kg/injection, schedule: Q01DX005 (ip), vehicle: Klucel (hydroxypropylcellulose) (HPC)): 103 % of control
- T/C (dose: 125.0 mg/kg/injection, schedule: Q01DX005 (ip), vehicle: Klucel (hydroxypropylcellulose) (HPC)): 96 % of control

Structure (SMILES): CCN1C2=NCCN2S(=O)(=O)c2ccccc21
- T/C [1]: 96 % of control
- T/C [2]: 97 % of control
- T/C [3]: 97 % of control

Structure (SMILES): O=c1c2ccccc2n(-c2ccccc2)c2ccccc12
- T/C [4]: 100 % of control
- T/C [5]: 100 % of control
- T/C [6]: 99 % of control

Structure (SMILES): O=[N+]([O-])c1ccc(-c2nc3ccc(F)cc3[nH]2)o1
- T/C [1]: 101 % of control
- T/C [2]: 97 % of control
- T/C [3]: 104 % of control

Structure (SMILES): CN(C#N)CCc1ccccc1
- T/C [7]: 100 % of control
- T/C [8]: 96 % of control

Structure (SMILES): CCOC(=O)c1nc[nH]c1C
- T/C [9]: 100 % of control
- T/C [10]: 101 % of control
- T/C [11]: 100 % of control

Structure (SMILES): O=c1c(N(CCO)CCO)cn(Cc2ccccc2)c(=O)n1Cc1ccccc1
- T/C [12]: 100 % of control
- T/C [4]: 102 % of control
- T/C [5]: 103 % of control
- T/C [6]: 97 % of control

Structure (SMILES): c1ccc(Cc2csc3nc4ccccc4n23)cc1
- T/C [1]: 100 % of control
- T/C [2]: 109 % of control
- T/C [3]: 99 % of control

Structure (SMILES): CCOc1c(N=Nc2ccc(O)cc2)c(C)nn1C(=S)SC
- T/C (dose: 60.0 mg/kg/injection, schedule: Q01DX005 (ip), vehicle: Klucel + Tween-80): 107 % of control
- T/C (dose: 120.0 mg/kg/injection, schedule: Q01DX005 (ip), vehicle: Klucel + Tween-80): 104 % of control
- T/C (dose: 240.0 mg/kg/injection, schedule: Q01DX005 (ip), vehicle: Klucel + Tween-80): 100 % of control

Structure (SMILES): Cc1nc2ncn(-c3ccccc3)c2c(=O)n1-c1cccnc1
- T/C [4]: 105 % of control
- T/C [5]: 110 % of control
- T/C [6]: 110 % of control

Structure (SMILES): O=C(NO)C1(Br)CCCCC1Br (stereo not drawn)
- T/C (dose: 100.0 mg/kg/injection, schedule: Q01DX001 (ip), vehicle: Klucel (hydroxypropylcellulose) (HPC)): 91 % of control

Structure (SMILES): C[SiH]12(OC(C(F)(F)F)(C(F)(F)F)c3ccccc31)OC(C(F)(F)F)(C(F)(F)F)c1ccccc12
- T/C (dose: 25.0 mg/kg/injection, schedule: Q01DX005 (ip), vehicle: saline with Tween-80): 100 % of control
- T/C [9]: 102 % of control

Structure (SMILES): N#CC(OC(=O)c1ccccc1)C(OC(=O)c1ccccc1)C(COC(=O)c1ccccc1)OC(=O)c1ccccc1 (stereo not drawn)
- T/C [9]: 99 % of control and 92 % of control
- T/C [10]: 94 % of control
- T/C [11]: 99 % of control

Structure (SMILES): OC(c1cc2cc(Cl)ccc2c2cc(C(F)(F)F)ccc12)C1CCCCN1 (stereo not drawn)
- T/C [13]: 106 % of control
- T/C [14]: 106 % of control

Structure (SMILES): CC12C(=O)C(c3ccccc3)(C(c3ccccc3)=C1c1ccccc1)C1OC(=O)OC12 (stereo not drawn)
- T/C [7]: 95 % of control
- T/C [8]: 91 % of control

Structure (SMILES): COC(=O)C1C(OCc2ccccc2)C2CCC1(OC)C=C2C (stereo not drawn)
- T/C [15]: 91 % of control
- T/C [16]: 98 % of control
- T/C (dose: 400.0 mg/kg/injection, schedule: Q04DX002 (ip), vehicle: saline with Tween-80): 91 % of control

Structure (SMILES): COCCCN1CC(=O)N2Cc3ccccc3CN2C(=O)C1
- T/C [9]: 98 % of control
- T/C [10]: 98 % of control
- T/C [11]: 103 % of control

Structure (SMILES): Cc1ccc(S(=O)(=O)Oc2ccc3oc4c(CO)ccc(NCCN(C)C)c4c(=O)c3c2)cc1
- T/C [9]: 97 % of control
- T/C [10]: 96 % of control
- T/C [11]: 96 % of control

Structure (SMILES): C=C1CC(C)(C)CN(Cc2ccc([N+](=O)[O-])cc2)C(C(=O)OC)=C1C(=O)OC
- T/C [4]: 87 % of control
- T/C [5]: 95 % of control
- T/C [6]: 94 % of control

Structure (SMILES): CCc1onc(-c2noc(CC)c2C)c1C
- T/C (dose: 60.0 mg/kg/injection, schedule: Q01DX005 (ip), vehicle: saline): 98 % of control
- T/C (dose: 120.0 mg/kg/injection, schedule: Q01DX005 (ip), vehicle: saline): 104 % of control
- T/C (dose: 240.0 mg/kg/injection, schedule: Q01DX005 (ip), vehicle: saline): 107 % of control

Structure (SMILES): CCCCc1n(O)c(-c2ccccc2)c(C)[n+]1[O-]
- T/C [14]: 100 % of control
- T/C [17]: 92 % of control
- T/C [7]: 88 % of control and 91 % of control

Structure (SMILES): Cc1nc(C)n2cnnc2c1C
- T/C (dose: 100.0 mg/kg/injection, schedule: Q04DX003 (ip), vehicle: saline): 96 % of control
- T/C (dose: 200.0 mg/kg/injection, schedule: Q04DX003 (ip), vehicle: saline): 95 % of control

Structure (SMILES): Cc1ccc(S(=O)(=O)N=S(C)(C)=O)cc1
- T/C (dose: 0.1 mg/kg/injection, schedule: Q01DX009 (ip), vehicle: saline with Tween-80): 104 % of control
- T/C (dose: 0.2 mg/kg/injection, schedule: Q01DX009 (ip), vehicle: saline with Tween-80): 105 % of control and 108 % of control
- T/C (dose: 0.39 mg/kg/injection, schedule: Q01DX009 (ip), vehicle: saline with Tween-80): 99 % of control and 101 % of control
- T/C (dose: 0.78 mg/kg/injection, schedule: Q01DX009 (ip), vehicle: saline with Tween-80): 107 % of control
- T/C (dose: 0.79 mg/kg/injection, schedule: Q01DX009 (ip), vehicle: saline with Tween-80): 98 % of control
- T/C (dose: 1.56 mg/kg/injection, schedule: Q01DX009 (ip), vehicle: saline with Tween-80): 108 % of control and 120 % of control and 96 % of control
- T/C [13]: 100 % of control and 105 % of control and 91 % of control
- T/C [14]: 104 % of control and 88 % of control
- T/C [17]: 97 % of control

Structure (SMILES): CN(C)CCNC(=O)c1ccc(C(=O)NCCN(C)C)c2c(C(=O)NCCN(C)C)ccc(C(=O)NCCN(C)C)c12
- T/C (dose: 1.56 mg/kg/injection, schedule: Q01DX005 (ip), vehicle: saline with Tween-80): 100 % of control
- T/C (dose: 3.13 mg/kg/injection, schedule: Q01DX005 (ip), vehicle: saline with Tween-80): 106 % of control
- T/C (dose: 6.25 mg/kg/injection, schedule: Q01DX005 (ip), vehicle: saline with Tween-80): 102 % of control and 109 % of control
- T/C (dose: 12.5 mg/kg/injection, schedule: Q01DX005 (ip), vehicle: saline with Tween-80): 108 % of control

Structure (SMILES): O=Cc1cc(/C(N=Nc2ccccc2C(=O)O)=N/Nc2ccccc2C(=O)O)nc2[nH]c(=O)ccc12
- T/C [4]: 95 % of control
- T/C [5]: 100 % of control

Structure (SMILES): Cc1noc(NC(=O)NC(=O)c2c(F)cccc2F)c1C
- T/C (dose: 50.0 mg/kg/injection, schedule: Q04DX002 (ip), vehicle: saline with Tween-80): 99 % of control
- T/C [15]: 99 % of control
- T/C [16]: 100 % of control

Structure (SMILES): COc1ccc2c(c1)CSCC2=O
- T/C (dose: 50.0 mg/kg/injection, schedule: Q01DX009 (ip), vehicle: Klucel (hydroxypropylcellulose) (HPC)): 98 % of control
- T/C (dose: 100.0 mg/kg/injection, schedule: Q01DX009 (ip), vehicle: Klucel (hydroxypropylcellulose) (HPC)): 98 % of control
- T/C (dose: 200.0 mg/kg/injection, schedule: Q01DX009 (ip), vehicle: Klucel (hydroxypropylcellulose) (HPC)): 100 % of control

Structure (SMILES): CCCNc1cc(C)cc2[nH]c(C)nc12
- T/C [12]: 103 % of control
- T/C [4]: 100 % of control
- T/C [5]: 103 % of control
- T/C [6]: 94 % of control

Structure (SMILES): CC1=CC(O/C=C2\C(=O)OC3C=CCC23)OC1=O (stereo not drawn)
- T/C (dose: 100.0 mg/kg/injection, schedule: Q04DX002 (ip), vehicle: suspension in saline): 99 % of control
- T/C (dose: 200.0 mg/kg/injection, schedule: Q04DX002 (ip), vehicle: suspension in saline): 98 % of control
- T/C (dose: 400.0 mg/kg/injection, schedule: Q04DX002 (ip), vehicle: suspension in saline): 111 % of control

Structure (SMILES): CSc1ccc(NC(=S)SCc2ccc(Cl)cc2)cc1Cl
- T/C (dose: 50.0 mg/kg/injection, schedule: Q01DX009 (ip), vehicle: suspension in saline): 108 % of control
- T/C (dose: 100.0 mg/kg/injection, schedule: Q01DX009 (ip), vehicle: suspension in saline): 117 % of control
- T/C (dose: 200.0 mg/kg/injection, schedule: Q01DX009 (ip), vehicle: suspension in saline): 116 % of control

Structure (SMILES): O=C(Cn1nnc2ccccc21)N1CCN(c2ccccc2)CC1
- T/C [1]: 90 % of control
- T/C [2]: 87 % of control

Structure (SMILES): CCOC(CCl)OCC
- T/C (dose: 6.25 mg/kg/injection, schedule: Q01DX009 (ip), vehicle: saline): 103 % of control and 105 % of control
